# According to PubChem BioAssay (NCI):
# “And” between values parts separate entries of the source, which are not always exact repeats. Equal entries are not always repeated.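 Five concentrations, 48 hours, 96-well plates. GI50 is the concentration that inhibits growth by half. TGI: concentration producing complete growth inhibition.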
# Tests used:
# Experiment in all cases: NCI-60 cell line screen, 48 h
# HCC-2998 colon = system: HCC-2998 colon
# HL-60(TB) leukemia = system: HL-60(TB) leukemia
# HT29 colon = system: HT29 colon
# MCF7 breast = system: MCF7 breast
# MDA-MB-231 breast = system: MDA-MB-231 breast
# PC-3 prostate = system: PC-3 prostate
# SK-MEL-28 melanoma = system: SK-MEL-28 melanoma
# UACC-62 melanoma = system: UACC-62 melanoma
Compound,GI50 (HCC-2998 colon),TGI (HCC-2998 colon),GI50 (HL-60(TB) leukemia),TGI (HL-60(TB) leukemia),GI50 (HT29 colon),TGI (HT29 colon),GI50 (MCF7 breast),TGI (MCF7 breast),GI50 (MDA-MB-231 breast),TGI (MDA-MB-231 breast),GI50 (PC-3 prostate),TGI (PC-3 prostate),GI50 (SK-MEL-28 melanoma),TGI (SK-MEL-28 melanoma),GI50 (UACC-62 melanoma),TGI (UACC-62 melanoma)
CCN(Cc1nc2cc(C(F)(F)F)ccc2nc1-c1ccccc1)c1ccc(OC)c(OC)c1,16.7 µM,34.4 µM,4.46 µM,17.6 µM,14.9 µM,> 100 µM,25.9 µM,> 100 µM,12.7 µM,29.2 µM,7.33 µM,22 µM,25.2 µM,76 µM,14.1 µM,27.7 µM
CCCC(=O)NC(c1ccc2c(c1)OCO2)c1ccc2cccnc2c1O (stereo unspecified),2.21 µM,> 100 µM,0.317 µM,4.76 µM,3.92 µM,> 100 µM,0.748 µM,> 100 µM,1.64 µM,> 100 µM,0.729 µM,> 100 µM,3.03 µM,> 100 µM,1.3 µM,7.3 µM
COc1cc(-c2nc(SCC(=O)Nc3ccc(C(C)=O)cc3)[nH]c(=O)c2C#N)cc(OC)c1OC,> 100 µM,> 100 µM,35 µM,> 100 µM,55.7 µM,> 100 µM,40 µM,> 100 µM,38.7 µM,> 100 µM,36.4 µM,> 100 µM,47.5 µM,> 100 µM,28 µM,> 100 µM
Cc1ccc(S(=O)(=O)NC(CCC(=O)Nc2ccccc2)C(=O)Nc2ccccc2)cc1 (stereo unspecified),,,0.55 µM,3.08 µM,,,,,,,,,,,0.172 µM,1.12 µM
CC12CCc3ccccc3C1=Nc1ccccc12 (stereo unspecified),,,,76.6 µM,,> 100 µM,,> 100 µM,,> 100 µM,,> 100 µM,,> 100 µM,,> 100 µM
CCCCCC(=O)OCC(=O)O[C@@H]1C[C@]2(C(C)C)O[C@@]1(C)[C@@H]1CC[C@@H](C)[C@H]1[C@@H]2OC(=O)/C=C/c1ccccc1,> 62.3 µM,> 100 µM,> 53.2 µM,> 80.3 µM,> 37.4 µM,> 79.1 µM,> 32.9 µM,> 100 µM,> 57.5 µM,> 80.5 µM,8.58 µM,> 100 µM,> 56.6 µM,> 83 µM,> 53.8 µM,> 100 µM
Oc1ccc(Br)cc1/C=N/NC(=S)NC12CC3CC(CC(C3)C1)C2,1.95 µM,4.6 µM,2.52 µM,6.5 µM,2.02 µM,3.93 µM,1.86 µM,5.92 µM,1.95 µM,5.54 µM,1.64 µM,4.94 µM,2.66 µM,10.1 µM,2.37 µM,7.83 µM
O=C(CCCNC(=O)OCc1ccccc1)OCc1ccc2c(c1)C(=O)c1ccccc1C2=O,,> 100 µM,,> 100 µM,,> 100 µM,,,,,,,,> 100 µM,,> 100 µM
NC(N)=N/N=C/c1cccc(Cl)c1Cl,1.73 µM,3.47 µM,3.46 µM,8.16 µM,2.31 µM,5.98 µM,2.09 µM,5.03 µM,3.63 µM,14.7 µM,10.8 µM,23.6 µM,4.24 µM,14.7 µM,1.85 µM,4.96 µM
COc1ccc(OC)c(-c2cc(-c3ccccc3)nn2-c2ccc(S(N)(=O)=O)cc2)c1,23 µM,37.9 µM,23.6 µM,> 100 µM,,,3.08 µM,16 µM,11.1 µM,27 µM,12.2 µM,28 µM,,,12.1 µM,24.7 µM
CCOC(=O)c1c(C)n(CC(C)C)c2c1cc1oc(=O)c(=O)n3cnc2c13,,,11.5 µM,36.4 µM,17.2 µM,> 50 µM,12.5 µM,45.3 µM,8.18 µM,22.1 µM,24.6 µM,> 50 µM,23.6 µM,> 50 µM,9.44 µM,21.6 µM
CC(F)(F)c1cc(F)ccc1-c1sc2cc(O)ccc2c1Oc1ccc(/C=C/C(=O)O)cc1,12.7 µM,30.6 µM,4.44 µM,23.8 µM,11.8 µM,36.1 µM,,15.2 µM,14.3 µM,35 µM,7.7 µM,24.7 µM,5.79 µM,18.9 µM,6.06 µM,22.9 µM
CC(C)c1cc(CNc2nc(Nc3cc(C4CC4)[nH]n3)cc(N3CCN(C)CC3)n2)on1,2.79 µM and 0.343 µM,> 10 µM and 6.39 µM,0.359 µM and 0.087 µM,> 10 µM and 1.6 µM,,,,> 10 µM and 13.1 µM,1.29 µM and 0.151 µM,> 10 µM and 5.42 µM,,> 10 µM and 7.02 µM,,> 10 µM and 4.59 µM,,> 10 µM and 2.35 µM
CCOC(=O)CNC(=O)CCCn1c(=O)c2c3ccccc3n(C)c2n2nnc(-c3ccccc3)c12,> 50 µM,> 50 µM,20.6 µM,> 50 µM,> 50 µM,> 50 µM,31.3 µM,> 50 µM,14.7 µM,31 µM,8.59 µM,> 50 µM,> 50 µM,> 50 µM,7.2 µM,21.8 µM
CCCCCCCCCCCCOC1C(C(COC2OC(C(O)CN3CCCCC3)C3OC(C)(C)OC23)NC(=O)Nc2ccccc2)OC2OC(C)(C)OC21 (stereo unspecified),4.61 µM,9.97 µM,3.96 µM,11.3 µM,2 µM,4.73 µM,3.16 µM,10.6 µM,12.8 µM,27.4 µM,10.7 µM,24.9 µM,7.89 µM,15.3 µM,15.9 µM,31 µM
BrC(Br)(Br)c1cnc2ccccc2n1,1.67 µM,3.6 µM,1.97 µM,4.16 µM,1.06 µM,2.67 µM,1.53 µM,5.42 µM,1.39 µM,3.22 µM,2.44 µM,9.89 µM,1.85 µM,4.24 µM,2.02 µM,6.6 µM
Cc1ccc2[nH]c(C(=O)NN3C(=O)CSC34CCCC(C)C4)c(-c3ccccc3)c2c1 (stereo unspecified),14.5 µM,28.8 µM,,,13.8 µM,29.4 µM,15.4 µM,38.5 µM,17.2 µM,34 µM,14.2 µM,29.6 µM,19.7 µM,37.6 µM,13.9 µM,29.2 µM
O=C(CCC(=O)N/N=C/c1ccccc1O)N/N=C/c1ccccc1O,,> 100 µM,,,,> 100 µM,,,,,,,,> 100 µM,,> 100 µM
COc1cc(C2CC(c3ccc4c(c3)OCO4)=NN2C(C)=O)cc(OC)c1OC (stereo unspecified),2.36 µM,60 µM,0.316 µM,2.92 µM,0.378 µM,> 100 µM,0.352 µM,> 100 µM,4.07 µM,> 100 µM,4.39 µM,> 100 µM,4.97 µM,> 100 µM,0.493 µM,> 100 µM

Compound,GI50 (HCC-2998 colon),TGI (HCC-2998 colon),GI50 (HL-60(TB) leukemia),TGI (HL-60(TB) leukemia),GI50 (HT29 colon),TGI (HT29 colon),GI50 (MCF7 breast),TGI (MCF7 breast),GI50 (MDA-MB-231 breast),TGI (MDA-MB-231 breast),GI50 (PC-3 prostate),TGI (PC-3 prostate),GI50 (SK-MEL-28 melanoma),TGI (SK-MEL-28 melanoma),GI50 (UACC-62 melanoma),TGI (UACC-62 melanoma)
CCN(CC)CCCCCOc1cc(O)c2c(=O)cc(-c3ccccc3)oc2c1,0.386 µM,2.35 µM,2.67 µM,7.1 µM,2.21 µM,5.5 µM,1.66 µM,3.83 µM,1.49 µM,4.34 µM,,,1.62 µM,3.07 µM,1.74 µM,3.15 µM
Cc1ccccc1-n1c(/C=C\c2ccccn2)nc2ccccc2c1=O,15.9 µM,29.9 µM,6.12 µM,> 100 µM,19.7 µM,> 100 µM,10.1 µM,58.7 µM,4.69 µM,59.2 µM,6.41 µM,65.4 µM,18.4 µM,39.8 µM,14.2 µM,45 µM
CCOC(=O)c1cc2cc(NC(=O)c3cc4cc([N+](=O)[O-])ccc4n3C)ccc2n1C,,,> 100 µM,> 100 µM,24.9 µM,> 100 µM,44.2 µM,> 100 µM,2.69 µM,16.3 µM,22.6 µM,52.9 µM,63.6 µM,> 100 µM,12.3 µM,27.1 µM
COc1ccc(CCNCc2cccc(OC)c2OC)cc1OC,,> 100 µM,,> 100 µM,,> 100 µM,,,,,,,,> 100 µM,,> 100 µM
O=C(CCc1ccccc1)On1nnc2ccccc2c1=O,,> 100 µM,,> 100 µM,,> 100 µM,,,,,,,,,,> 100 µM
CC(=O)OCC(OC(C)=O)C(OC(C)=O)C(OC(C)=O)C(=O)CNn1c(-c2ccccc2)nc2ccc(Br)cc2c1=O (stereo unspecified),,,,> 100 µM,,> 100 µM,,,,,,,,> 100 µM,,> 100 µM
CCCCCCNC(=O)Oc1ccc(/C(=C(\C)c2ccccc2)c2ccc(OCCN3CCCCC3)cc2)cc1,2.96 µM,8.92 µM,,,1.38 µM,3.89 µM,0.0428 µM,3.64 µM,2.09 µM,4.96 µM,2.58 µM,11.5 µM,2.06 µM,4.41 µM,3.63 µM,12.5 µM
CC(C)CC(CNC(Cc1ccc(Cl)cc1)C(N)=O)NC(=O)C(Cc1cnc[nH]1)NC(=O)CNC(=O)C(NC(=O)C(C)NC(=O)C(Cc1c[nH]c2ccccc12)NC(=O)C(CCC(=O)O)NC(=O)C(N)Cc1ccccc1)C(C)C (stereo unspecified),,> 133 µM,,> 133 µM,,> 133 µM,,,,,,,,> 133 µM,,> 133 µM
COc1ccc(NC(=O)Nc2ccc(Nc3nc(C)cc(Nc4ccc(C)cc4)n3)cc2)cc1,1.89 µM,3.59 µM,,,,,,,0.894 µM,2.46 µM,1.46 µM,2.88 µM,1.51 µM,3.14 µM,1.41 µM,3.04 µM
COc1ccc2c(c1OC)-c1c(c3ccc([N+](=O)[O-])cc3c(=O)n1CCCN=[N+]=[N-])C2=O,79.9 µM,> 100 µM,,,31.7 µM,> 100 µM,11.2 µM,> 100 µM,> 100 µM,> 100 µM,22 µM,> 100 µM,> 100 µM,> 100 µM,4.59 µM,> 100 µM
COc1cc2nc(-c3ccc(-n4cncc4-c4ccc(N)cc4)cc3)sc2c(OC)c1OC,,,,,2.79 µM,> 100 µM,3.02 µM,> 100 µM,3.66 µM,> 100 µM,3.02 µM,49.2 µM,> 100 µM,> 100 µM,5.45 µM,> 100 µM
COc1cc(/C=C2\CC3C4CC=C5C[C@@H](N6CCCC6)CC[C@]5(C)C4CC[C@]3(C)[C@H]2OC(C)=O)ccc1OCCN1CCCCC1 (stereo partly specified),0.397 µM,0.85 µM,,,1.55 µM,> 100 µM,3.02 µM,> 100 µM,2.27 µM,4.1 µM,1.54 µM,3.72 µM,2.31 µM,4.8 µM,1.44 µM,2.81 µM
CCOC(=O)C1=C(NC(C)(C)C)OCC1=O,,> 100 µM,,> 100 µM,,> 100 µM,,,,,,,,> 100 µM,,> 100 µM
Cc1cccc2c1Oc1cc(Cl)ccc1C2NC(=O)CN(C)C (stereo unspecified),,> 100 µM,,45.3 µM,,> 100 µM,,,,,,,,72.7 µM,,70 µM
Cc1c(C2Cc3ccccc3N2C(=O)/C=C\C(=O)O)c2ccccc2n1C (stereo unspecified),,39.5 µM,,51.6 µM,,> 100 µM,,,,,,,,,,35.8 µM
Cc1ccc(C2SCc3nc4ccc(C(=O)c5ccccc5)cc4n32)cc1 (stereo unspecified),,,,,5.73 µM,> 100 µM,11.9 µM,> 76.7 µM,3.66 µM,19.4 µM,10.5 µM,> 67.5 µM,17.7 µM,> 100 µM,5.29 µM,19.3 µM
CN1CCN(Cc2ccc(NC(=O)c3[nH]ncc3Nc3ncnc4sccc34)cc2)CC1,,,0.334 µM,1.07 µM,,,0.126 µM,> 100 µM,,,0.394 µM,> 100 µM,0.857 µM,> 100 µM,0.915 µM,> 100 µM
Oc1ccc(/C=N/Nc2nc3ccccc3s2)c(O)c1,3.76 µM,19.4 µM,,,3.61 µM,13.6 µM,1.65 µM,9.39 µM,1.69 µM,12.9 µM,4 µM,> 100 µM,2.99 µM,> 100 µM,1.75 µM,4.82 µM
